Measurements published in US12427144B2, “Compounds and methods for the targeted degradation of androgen receptor” (Arvinas Operations, Inc., priority 2019, dated 2025).

Biological target: T1, Androgen Receptor (AR) (Homo sapiens, UniProt P10275)
T1 construct: endogenous in cells; host or cells: VCaP
T1 sequence (P10275 1-920): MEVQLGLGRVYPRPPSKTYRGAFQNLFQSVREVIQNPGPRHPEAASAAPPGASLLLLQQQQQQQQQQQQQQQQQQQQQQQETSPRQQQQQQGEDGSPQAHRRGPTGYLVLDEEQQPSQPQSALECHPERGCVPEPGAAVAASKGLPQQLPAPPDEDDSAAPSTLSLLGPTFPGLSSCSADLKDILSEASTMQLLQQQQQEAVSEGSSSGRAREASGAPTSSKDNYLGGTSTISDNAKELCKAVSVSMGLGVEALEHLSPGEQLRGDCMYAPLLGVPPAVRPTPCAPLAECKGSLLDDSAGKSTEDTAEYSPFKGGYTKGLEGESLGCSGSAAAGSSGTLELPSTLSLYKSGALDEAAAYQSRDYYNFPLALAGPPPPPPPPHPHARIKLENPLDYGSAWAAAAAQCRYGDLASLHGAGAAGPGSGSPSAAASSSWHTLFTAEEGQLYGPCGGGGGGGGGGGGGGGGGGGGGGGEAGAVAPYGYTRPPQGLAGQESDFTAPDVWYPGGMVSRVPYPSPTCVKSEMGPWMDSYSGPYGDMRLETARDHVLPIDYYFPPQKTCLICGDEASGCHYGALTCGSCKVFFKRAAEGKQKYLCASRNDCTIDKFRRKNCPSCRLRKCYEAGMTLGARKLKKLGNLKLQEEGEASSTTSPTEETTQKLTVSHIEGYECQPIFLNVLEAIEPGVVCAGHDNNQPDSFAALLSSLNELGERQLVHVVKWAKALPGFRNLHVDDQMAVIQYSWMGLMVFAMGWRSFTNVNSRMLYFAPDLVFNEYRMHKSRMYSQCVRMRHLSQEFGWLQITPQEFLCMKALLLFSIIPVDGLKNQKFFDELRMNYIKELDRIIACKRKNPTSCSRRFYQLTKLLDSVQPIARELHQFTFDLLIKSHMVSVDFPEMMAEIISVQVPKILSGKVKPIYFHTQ
Experiment: AR immunofluorescence staining, high content imager, VCaP cells
Format: cell-based
Conditions: for DC50: AR degradation by immunofluorescence; for Dmax: maximal AR degradation
Method: AR Immunofluorescence Staining of Cells for the High Content Imager was performed as follows: Following treatment of the cells with compound (using the central 60 wells of a 96-well plate), media was removed by aspiration, followed by addition of 50 μL per well of 4% paraformaldehyde (PFA) in PBS supplemented with 2 mM MgCl2 and 2 mM CaCl2. Fixed cells were incubated at RT for 15 minutes. For particularly low adherence cell lines (e.g., VCaP), a 2× solution of 8% PFA was added directly to wells instead. Cells were washed once with 200 μL PBS/well. To permeabilize cells 50 μL/well of 0.1% Triton X-100 in PBS was added and incubated for 5 minutes. Cells were washed once with 200 μL PBSS/well. 100 μL/well of Licor Odyssey Blocking Buffer was added for 1 hour at 20° C. Wells were aspirated and AR antibody (1:1000 in Licor Odyssey blocking buffer; 50 μL/well; CST 5153s) was added. Plates were incubated overnight at 4° C. Plates were washed 3 times with 200 EL PBS/well. The appropriate secondary antibody was added (50 μL/well; diluted in Licor Odyssey blocking buffer) and incubated for 1 hour at RT in the dark as prepared below using Anti-rabbit FITC (1:5000; […]) and Phalloidin-Alexafluor 648 (1:500; […]). Cells were washed once with 200 μL PBS/well. 50 μL DAPI or Hoechst 33342 diluted 1:1000 in Licor Odyssey blocking buffer was added to the wells. Cells were washed 3 times with 200 μL PBS/well. The plates were covered with a clear plastic sealer and refrigerated in the dark until ready to analyze. The cells were analyzed using a Molecular Devices IXM high content imager and analyzed using Molecular Devices metaXpress software suite.

Row | Compound | DC50 [nM] | Dmax [%]
1 | COc1cc(O[C@H]2C(C)(C)[C@H](NC(=O)c3ccc(N4CCC(CN5CCN(c6cnc(C(=O)N[C@H]7CCC(=O)NC7=O)cn6)CC5)CC4)cc3)C2(C)C)ccc1C#N [Compound 37, 5-[4-[[1-[4-[[3-(4-cyano-3-methoxy-phenoxy)-2,2,4,4-tetramethyl-cyclobutyl]carbamoyl]phenyl]-4-piperidyl]methyl]piperazin-1-yl]-N-[(3S)-2,6-dioxo-3-piperidyl]pyrazine-2-carboxamide] | < 1 | ≥ 70
2 | COc1cc(O[C@H]2C(C)(C)[C@H](NC(=O)c3ccc(N4CCO[C@@H](CN5CCN(c6ccc(C(=O)NC7CCC(=O)NC7=O)c(OC)c6)CC5)C4)cc3)C2(C)C)ccc1C#N (stereo partly drawn) [Compound 58, N-(2,6-dioxopiperidin-3-yl)-2-methoxy-4-(4-{[(2S)-4-(4-{[(1r,3r)-3-(4-cyano-3-methoxyphenoxy)-2,2,4,4-tetramethylcyclobutyl]carbamoyl}phenyl)morpholin-2-yl]methyl}piperazin-1-yl)benzamide] | < 1 | ≥ 70
3 | Cc1cc(O[C@H]2C(C)(C)[C@H](NC(=O)c3ccc(N4CCC(CC5CCN(C67CC(C(=O)NC8CCC(=O)NC8=O)(C6)C7)CC5)CC4)cc3)C2(C)C)cc(C)c1C#N (mixture of isomers) [Compound 70, rac-N-(2,6-dioxopiperidin-3-yl)-3-(4-{[1-(4-{[(1r,3r)-3-(4-cyano-3,5-dimethylphenoxy)-2,2,4,4-tetramethylcyclobutyl]carbamoyl}phenyl)piperidin-4-yl]methyl}piperidin-1-yl)bicyclo[1.1.1]pentane-1-carboxamide] | < 1 | < 50
4 | Cc1cc(O[C@H]2C(C)(C)[C@H](NC(=O)c3ccc(N4CCC5(CC4)CN([C@H]4C[C@H](Oc6ccc(C(=O)NC7CCC(=O)NC7=O)cc6)C4)CCO5)cc3)C2(C)C)cc(C)c1C#N (stereo partly shown) [Compound 68, N-[(1r,3r)-3-(4-cyano-3,5-dimethylphenoxy)-2,2,4,4-tetramethylcyclobutyl]-4-{4-[(1r,3r)-3-{4-[(2,6-dioxopiperidin-3-yl)carbamoyl]phenoxy}cyclobutyl]-1-oxa-4,9-diazaspiro[5.5]undecan-9-yl}benzamide] | 1 to 10 | 50 to 70
5 | CCN(C(=O)c1ccc(N2CCN(CC3CCN(c4ccc(C(=O)N[C@H]5CC[C@H](Oc6ccc(C#N)c(Cl)c6)CC5)nn4)CC3)CC2)cc1)C1CCC(=O)NC1=O (stereo partly drawn) [Compound 32, N-((1R,4R)-4-(3-chloro-4-cyanophenoxy)cyclohexyl)-6-(4-((4-(4-((2,6-dioxopiperidin-3-yl)(ethyl)carbamoyl)phenyl)piperazin-1-yl)methyl)piperidin-1-yl)pyridazine-3-carboxamide] | ≥ 100 | < 50
6 | Cc1cc(O[C@H]2C(C)(C)[C@H](NC(=O)c3ccc(N4CCC(CN5CCN(c6cnc(C(=O)N[C@H]7CCC(=O)NC7=O)cn6)CC5)CC4)cc3)C2(C)C)cc(C)c1C#N [Compound 33, 5-[4-[[1-[4-[[3-(4-cyano-3,5-dimethyl-phenoxy)-2,2,4,4-tetramethyl-cyclobutyl]carbamoyl]phenyl]-4-piperidyl]methyl]piperazin-1-yl]-N-[(3S)-2,6-dioxo-3-piperidyl]pyrazine-2-carboxamide] | < 1 | ≥ 70
7 | Cc1cc(O[C@H]2C(C)(C)[C@H](NC(=O)c3ccc(N4CC5(C4)CN([C@H]4C[C@H](Oc6ccc(C(=O)N[C@H]7CCC(=O)NC7=O)c(F)c6)C4)CCO5)cc3)C2(C)C)cc(C)c1C#N [Compound 63, N-[(1r,3r)-3-(4-cyano-3,5-dimethylphenoxy)-2,2,4,4-tetramethylcyclobutyl]-4-{8-[(1r,3r)-3-(4-{[(3S)-2,6-dioxopiperidin-3-yl]carbamoyl}-3-fluorophenoxy)cyclobutyl]-5-oxa-2,8-diazaspiro[3.5]nonan-2-yl}benzamide] | < 1 | 50 to 70
8 | Cc1cc(O[C@H]2C(C)(C)[C@H](NC(=O)c3ccc(N4CC(CN5CC(c6ccc(C(=O)N[C@H]7CCC(=O)NC7=O)c(F)c6)C5)C4)cc3)C2(C)C)cc(C)c1C#N [Compound 71, N-[(3S)-2,6-dioxopiperidin-3-yl]-2-fluoro-4-(1-{[1-(4-{[(1r,3r)-3-(4-cyano-3,5-dimethylphenoxy)-2,2,4,4-tetramethylcyclobutyl]carbamoyl}phenyl)azetidin-3-yl]methyl}azetidin-3-yl)benzamide] | < 1 | 50 to 70
9 | Cc1cc(O[C@H]2C(C)(C)[C@H](NC(=O)c3ccc(N4CCC(CN5CCOCCCCCOc6ccc(C(=O)NC7CCC(=O)NC7=O)cc6O[C@H]6C[C@H]5C6)CC4)cc3)C2(C)C)cc(C)c1C#N (stereo partly shown) [Compound 72, (1r,19r)-N-(2,6-dioxopiperidin-3-yl)-18-{[1-(4-{[(1r,3r)-3-(4-cyano-3,5-dimethylphenoxy)-2,2,4,4-tetramethylcyclobutyl]carbamoyl}phenyl)piperidin-4-yl]methyl}-2,9,15-trioxa-18-azatricyclo[17.1.1.0^3,8]henicosa-3(8),4,6-triene-5-carboxamide] | 1 to 10 | < 50
10 | COCCN(C[C@H]1CN(c2ccc(C(=O)N[C@H]3C(C)(C)[C@@H](Oc4ccc(C#N)c(OC)c4)C3(C)C)cc2)CCO1)[C@H]1C[C@H](Oc2ccc(C(=O)N[C@@H]3CCC(=O)NC3=O)c(F)c2)C1 [Compound 50, 4-[(2S)-2-{[(2-methoxyethyl)[(1r,3r)-3-(4-{[(3R)-2,6-dioxopiperidin-3-yl]carbamoyl}-3-fluorophenoxy)cyclobutyl]amino]methyl}morpholin-4-yl]-N-[(1r,3r)-3-(4-cyano-3-methoxyphenoxy)-2,2,4,4-tetramethylcyclobutyl]benzamide] | < 1 | ≥ 70
11 | Cc1cc(O[C@H]2C(C)(C)[C@H](NC(=O)c3ccc(N4CCC(CN5CCN(c6ccc(C(=O)NC7CCC(=O)NC7=O)c(F)c6)CC5)CC4)cc3)C2(C)C)cc(C)c1C#N (stereo partly drawn) [Compound 20, 4-(4-((1-(4-(((1R,3R)-3-(4-cyano-3,5-dimethylphenoxy)-2,2,4,4-tetramethylcyclobutyl)carbamoyl)phenyl)piperidin-4-yl)methyl)piperazin-1-yl)-N-(2,6-dioxopiperidin-3-yl)-2-fluorobenzamide] | < 1 | ≥ 70
12 | Cc1cc(O[C@H]2C(C)(C)[C@H](NC(=O)c3ccc(N4CCOC(CN(C(C)C)[C@H]5C[C@@H](Oc6ccc(F)c(C(=O)N[C@H]7CCC(=O)NC7=O)c6)C5)C4)cc3)C2(C)C)cc(C)c1C#N (stereo partly drawn) [Compound 61, 4-(2-{[(propan-2-yl)[(1r,3r)-3-(3-{[(3S)-2,6-dioxopiperidin-3-yl]carbamoyl}-4-fluorophenoxy)cyclobutyl]amino]methyl}morpholin-4-yl)-N-[(1r,3r)-3-(4-cyano-3,5-dimethylphenoxy)-2,2,4,4-tetramethylcyclobutyl]benzamide] | < 1 | 50 to 70
13 | CC1(C)[C@H](NC(=O)c2cnc(N3CCC(CN4CCN(c5ccc(C(=O)NC6CCC(=O)NC6=O)c(F)c5)CC4)CC3)cn2)C(C)(C)[C@H]1Oc1ccc(C#N)c(Cl)c1 (stereo partly drawn) [Compound 18, N-((1R,3R)-3-(3-chloro-4-cyanophenoxy)-2,2,4,4-tetramethylcyclobutyl)-5-(4-((4-(4-((2,6-dioxopiperidin-3-yl)carbamoyl)-3-fluorophenyl)piperazin-1-yl)methyl)piperidin-1-yl)pyrazine-2-carboxamide] | 1 to 10 | 50 to 70
14 | COc1cc(O[C@H]2C(C)(C)[C@H](NC(=O)c3ccc(N4CCO[C@@H](CN5CCN(c6ccc(C(=O)NC7CCC(=O)NC7=O)cc6OC)CC5)C4)cc3)C2(C)C)ccc1C#N (stereo partly drawn) [Compound 57, N-(2,6-dioxopiperidin-3-yl)-3-methoxy-4-(4-{[(2S)-4-(4-{[(1r,3r)-3-(4-cyano-3-methoxyphenoxy)-2,2,4,4-tetramethylcyclobutyl]carbamoyl}phenyl)morpholin-2-yl]methyl}piperazin-1-yl)benzamide] | < 1 | ≥ 70
